Reference: patent publication US20260217711A1, “TRIAZOLOPYRIDINYL ETHER LINKED COMPOUNDS AS KINASE INHIBITORS” (Bristol-Myers Squibb Company, priority 2023, published 2026)

Test system: MLKL phosphorylation (pMLKL) in HT29-L23 cells
Assay: MLKL Phosphorylation High-Content Assay
Type: cell-based
Conditions: Homo sapiens, 6 h, necroptosis induced with human TNFα, SMAC mimetic and Z-VAD, read-out: LE pMLKL HC IC50
Outline: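 HT29-L23 cells incubated 6 h at 37° C before detection of phospho-MLKL by immunostaining with anti-phospho-MLKL antibody (1:1000 in PBS/0.1% BSA, overnight at 4° C). Readout by high-content imaging with compartmental image analysis.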

Question: Which IC50 does the source give for CC(O)(c1ccc(F)cc1)C(F)(F)CCOc1cccc(-c2ccn3nc(N)nc3c2)c1F (racemic) [Example 73, 5-(3-(2-amino-[1,2,4]triazolo[1,5-a]pyridin-7-yl)-2-fluorophenoxy)-3,3-difluoro-2-(4-fluorophenyl)pentan-2-ol] here?
Answer: 0.5 nM

Same assay, conditions: necroptosis induced with human TNFα, SMAC mimetic and Z-VAD, 6 h, read-out: LE pMLKL HC IC50

Question: Cc1ccc(-c2ccn3nc(N)nc3c2)c(F)c1OCCC(F)C(O)c1ccc(F)cc1 (single isomer, unassigned) [Example 107, 4-(3-(2-amino-[1,2,4]triazolo[1,5-a]pyridin-7-yl)-2-fluoro-6-methylphenoxy)-2-fluoro-1-(4-fluorophenyl)butan-1-ol] was tested. Which IC50 did it give?
Answer: 1.2 nM

Question: With CC(O)(c1ccccc1)C(F)(F)CCOc1c(F)ccc(-c2ccn3nc(N)nc3c2)c1F (single isomer, unassigned) [Example 39, 5-(3-(2-amino-[1,2,4]triazolo[1,5-a]pyridin-7-yl)-2,6-difluorophenoxy)-3,3-difluoro-2-phenylpentan-2-ol] as the compound, how does the IC50 read?
Answer: 130 nM

Question: How did the IC50 turn out when Nc1nc2cc(-c3ccc(F)c(OCCC(F)(F)C(O)c4ccc(F)cc4)c3F)ccn2n1 (single isomer, unassigned) [Example 56, 4-(3-(2-amino-[1,2,4]triazolo[1,5-a]pyridin-7-yl)-2,6-difluorophenoxy)-2,2-difluoro-1-(4-fluorophenyl)butan-1-ol] was run?
Answer: 4 nM

Question: Which IC50 does the source give for [2H]C([2H])(CC(F)(F)C(C)(O)c1ccc(F)cc1)Oc1c(F)ccc(-c2ccn3nc(N)nc3c2)c1F (single isomer, unassigned) [Example 14, 5-(3-(2-amino-[1,2,4]triazolo[1,5-a]pyridin-7-yl)-2,6-difluorophenoxy)-3,3-difluoro-2-(4-fluorophenyl)pentan-5,5-d2-2-ol] here?
Answer: 30 nM

Question: For Nc1nc2cc(-c3ccc(Cl)c(OCCC(F)(F)C(O)c4ccc(F)cc4)c3F)ccn2n1 (single isomer, unassigned) [Example 59, 4-(3-(2-amino-[1,2,4]triazolo[1,5-a]pyridin-7-yl)-6-chloro-2-fluorophenoxy)-2,2-difluoro-1-(4-fluorophenyl)butan-1-ol], which IC50 is on record?
Answer: 2 nM

Question: Which IC50 does the source give for CC(O)(c1ccc(F)cc1)C(F)(F)CCOc1cc(F)cc(-c2ccn3nc(N)nc3c2)c1F (single isomer, unassigned) [Example 10, 5-(3-(2-amino-[1,2,4]triazolo[1,5-a]pyridin-7-yl)-2,5-difluorophenoxy)-3,3-difluoro-2-(4-fluorophenyl)pentan-2-ol] here?
Answer: 1 nM

Question: CC(O)(c1ccc(F)cc1)C(F)(F)CCOc1cc(-c2ccn3nc(N)nc3c2)ccc1F (single isomer, unassigned) [Example 58, 5-(5-(2-amino-[1,2,4]triazolo[1,5-a]pyridin-7-yl)-2-fluorophenoxy)-3,3-difluoro-2-(4-fluorophenyl)pentan-2-ol] was tested. Which IC50 did it give?
Answer: 5 nM

Question: Which IC50 does the source give for Nc1nc2cc(-c3ccc(F)c(OCCC(F)(F)C(O)c4ccc(F)cc4)c3)ccn2n1 (single isomer, unassigned) [Example 53, 4-(5-(2-amino-[1,2,4]triazolo[1,5-a]pyridin-7-yl)-2-fluorophenoxy)-2,2-difluoro-1-(4-fluorophenyl)butan-1-ol] here?
Answer: 1.5 nM

Question: For CC(O)(c1ccc(F)cc1)C(F)(F)CCOc1c(Cl)ccc(-c2ccn3nc(N)nc3c2)c1F (single isomer, unassigned) [Example 5, 5-(3-(2-amino-[1,2,4]triazolo[1,5-a]pyridin-7-yl)-6-chloro-2-fluorophenoxy)-3,3-difluoro-2-(4-fluorophenyl)pentan-2-ol], which IC50 is on record?
Answer: 150 nM

Question: With Nc1nc2cc(-c3cccc(OCCC(F)(F)C(O)c4ccc(F)cc4)c3F)ccn2n1 (single isomer, unassigned) [Example 72, 4-(3-(2-amino-[1,2,4]triazolo[1,5-a]pyridin-7-yl)-2-fluorophenoxy)-2,2-difluoro-1-(4-fluorophenyl)butan-1-ol] as the compound, how does the IC50 read?
Answer: 1 nM

Question: Which IC50 does the source give for Cc1ccc(-c2ccn3nc(N)nc3c2)c(F)c1OCCC(F)C(C)(O)c1ccc(F)cc1 (single isomer, unassigned) [Example 114, 5-(3-(2-amino-[1,2,4]triazolo[1,5-a]pyridin-7-yl)-2-fluoro-6-methylphenoxy)-3-fluoro-2-(4-fluorophenyl)pentan-2-ol] here?
Answer: 0.1 nM

Question: With CC(O)(c1cccc(F)c1)C(F)(F)CCOc1c(F)ccc(-c2ccn3nc(N)nc3c2)c1F (single isomer, unassigned) [Example 123, 5-(3-(2-amino-[1,2,4]triazolo[1,5-a]pyridin-7-yl)-2,6-difluorophenoxy)-3,3-difluoro-2-(3-fluorophenyl)pentan-2-ol] as the compound, how does the IC50 read?
Answer: 0.9 nM

Question: Nc1nc2cc(-c3cc(F)c(F)c(OCCC(F)C(O)c4ccc(F)cc4)c3)ccn2n1 (single isomer, unassigned) [Example 118, 4-(5-(2-amino-[1,2,4]triazolo[1,5-a]pyridin-7-yl)-2,3-difluorophenoxy)-2-fluoro-1-(4-fluorophenyl)butan-1-ol] was tested. Which IC50 did it give?
Answer: 1040 nM

Question: Which IC50 does the source give for CC(O)(c1ccc(Cl)cc1)C(F)(F)CCOc1cccc(-c2ccn3nc(N)nc3c2)c1F (single isomer, unassigned) [Example 48, 5-(3-(2-amino-[1,2,4]triazolo[1,5-a]pyridin-7-yl)-2-fluorophenoxy)-2-(4-chlorophenyl)-3,3-difluoropentan-2-ol] here?
Answer: 0.1 nM

Question: With COc1cc(F)c(OCCC(F)(F)C(C)(O)c2ccc(F)cc2)c(F)c1-c1ccn2nc(N)nc2c1 (single isomer, unassigned) [Example 21, 5-(3-(2-amino-[1,2,4]triazolo[1,5-a]pyridin-7-yl)-2,6-difluoro-4-methoxyphenoxy)-3,3-difluoro-2-(4-fluorophenyl)pentan-2-ol] as the compound, how does the IC50 read?
Answer: 1.1 nM

Question: CC(O)(c1ccc(Cl)cc1)C(F)(F)CCOc1c(F)ccc(-c2ccn3nc(N)nc3c2)c1F (single isomer, unassigned) [Example 45, 5-(3-(2-amino-[1,2,4]triazolo[1,5-a]pyridin-7-yl)-2,6-difluorophenoxy)-2-(4-chlorophenyl)-3,3-difluoropentan-2-ol] was tested. Which IC50 did it give?
Answer: 80 nM

Question: CC(O)(c1ccccc1)C(F)(F)CCOc1cccc(-c2ccn3nc(N)nc3c2)c1F (single isomer, unassigned) [Example 67, 5-(3-(2-amino-[1,2,4]triazolo[1,5-a]pyridin-7-yl)-2-fluorophenoxy)-3,3-difluoro-2-phenylpentan-2-ol] was tested. Which IC50 did it give?
Answer: 4 nM

Question: For Cc1ccc(-c2ccn3nc(N)nc3c2)c(F)c1OCCC(F)C(O)c1ccc(F)cc1 (single isomer, unassigned) [Example 108, 4-(3-(2-amino-[1,2,4]triazolo[1,5-a]pyridin-7-yl)-2-fluoro-6-methylphenoxy)-2-fluoro-1-(4-fluorophenyl)butan-1-ol], which IC50 is on record?
Answer: 2.4 nM

Question: With Nc1nc2cc(-c3cccc(OCCC(F)C(O)c4ccc(F)cc4)c3F)ccn2n1 (single isomer, unassigned) [Example 87, 4-(3-(2-amino-[1,2,4]triazolo[1,5-a]pyridin-7-yl)-2-fluorophenoxy)-2-fluoro-1-(4-fluorophenyl)butan-1-ol] as the compound, how does the IC50 read?
Answer: 0.4 nM

Question: With CC(O)(c1ccc(F)cc1)C(F)(F)CCOc1ccc(F)c(-c2ccn3nc(N)nc3c2)n1 (single isomer, unassigned) [Example 77, 5-((6-(2-amino-[1,2,4]triazolo[1,5-a]pyridin-7-yl)-5-fluoropyridin-2-yl)oxy)-3,3-difluoro-2-(4-fluorophenyl)pentan-2-ol] as the compound, how does the IC50 read?
Answer: 430 nM

Question: With Nc1nc2cc(-c3ccc(Cl)c(OCCC(F)(F)C(O)c4ccc(F)cc4)c3F)ccn2n1 (single isomer, unassigned) [Example 60, 4-(3-(2-amino-[1,2,4]triazolo[1,5-a]pyridin-7-yl)-6-chloro-2-fluorophenoxy)-2,2-difluoro-1-(4-fluorophenyl)butan-1-ol] as the compound, how does the IC50 read?
Answer: 5 nM

Question: Which IC50 does the source give for Nc1nc2cc(-c3ccc(C(F)(F)F)c(OCCC(F)C(O)c4ccc(F)cc4)c3F)ccn2n1 (single isomer, unassigned) [Example 110, 4-(3-(2-amino-[1,2,4]triazolo[1,5-a]pyridin-7-yl)-2-fluoro-6-(trifluoromethyl)phenoxy)-2-fluoro-1-(4-fluorophenyl)butan-1-ol] here?
Answer: 360 nM

Question: For CC(O)(c1ccccc1)C(F)(F)CCOc1c(Cl)ccc(-c2ccn3nc(N)nc3c2)c1F (single isomer, unassigned) [Example 41, 5-(3-(2-amino-[1,2,4]triazolo[1,5-a]pyridin-7-yl)-6-chloro-2-fluorophenoxy)-3,3-difluoro-2-phenylpentan-2-ol], which IC50 is on record?
Answer: 0.4 nM

Question: Which IC50 does the source give for Nc1nc2cc(-c3ccc(C(F)(F)F)c(OCCC(F)C(O)c4ccc(F)cc4)c3F)ccn2n1 (single isomer, unassigned) [Example 113, 4-(3-(2-amino-[1,2,4]triazolo[1,5-a]pyridin-7-yl)-2-fluoro-6-(trifluoromethyl)phenoxy)-2-fluoro-1-(4-fluorophenyl)butan-1-ol] here?
Answer: 220 nM

Question: With CC(O)(c1ccc(F)cc1)C(F)CCOc1c(F)ccc(-c2ccn3nc(N)nc3c2)c1F (single isomer, unassigned) [Example 94, 5-(3-(2-amino-[1,2,4]triazolo[1,5-a]pyridin-7-yl)-2,6-difluorophenoxy)-3-fluoro-2-(4-fluorophenyl)pentan-2-ol] as the compound, how does the IC50 read?
Answer: 97 nM

Question: How did the IC50 turn out when Nc1nc2cc(-c3cccc(OCCC(F)C(O)c4ccc(F)cc4)c3F)ccn2n1 (single isomer, unassigned) [Example 86, 4-(3-(2-amino-[1,2,4]triazolo[1,5-a]pyridin-7-yl)-2-fluorophenoxy)-2-fluoro-1-(4-fluorophenyl)butan-1-ol] was run?
Answer: 17 nM

Question: How did the IC50 turn out when CC(O)(c1ccc(F)cc1)C(F)(F)CCOc1c(C(F)F)ccc(-c2ccn3nc(N)nc3c2)c1F (single isomer, unassigned) [Example 25, 5-(3-(2-amino-[1,2,4]triazolo[1,5-a]pyridin-7-yl)-6-(difluoromethyl)-2-fluorophenoxy)-3,3-difluoro-2-(4-fluorophenyl)pentan-2-ol] was run?
Answer: 1.5 nM

Question: How did the IC50 turn out when CC(O)(c1ccc(F)cc1)C(F)CCOc1cccc(-c2ccn3nc(N)nc3c2)c1F (single isomer, unassigned) [Example 91, 5-(3-(2-amino-[1,2,4]triazolo[1,5-a]pyridin-7-yl)-2-fluorophenoxy)-3-fluoro-2-(4-fluorophenyl)pentan-2-ol] was run?
Answer: 0.3 nM
